Measured values reported in patent US10993957B2 (NuCana plc, priority 2011, dated 2021).
Like-named read-outs stand apart in the source and are kept apart here.

Legend:
L1210/0 = assay: Cytostatic assay, L1210/0 cells; format: cell-based, murine; conditions: for IC50: read-out: IC50 L1210/0
Text: (§1) The cell lines employed were L1210/0 (a leukemia cell line), FM3A/0 (a breast cancer cell line), Cem/0 (an acute lymphoblastic leukemia cell line) and HeLa (a cervical cell line).

L1210/TK^− = assay: Cytostatic assay, thymidine kinase-deficient L1210/TK^− cells; format: cell-based, murine; conditions: for CC50: L1210, Table 1, read-out: CC50 L1210/TK^−; for IC50: Table 6, read-out: IC50 L1210/TK^−
Cem/0 = assay: Cytostatic assay, CEM/0 cells; format: cell-based, human; conditions: for CC50: Table 1, read-out: CC50 Cem/0; for IC50: Table 6, read-out: IC50 Cem/0
Text: as §1

Cem/TK^− = assay: Cytostatic assay, thymidine kinase-deficient CEM/TK^− cells; format: cell-based, human; conditions: for CC50: Table 1, read-out: CC50 Cem/TK^−; for IC50: Table 6, read-out: IC50 Cem/TK^−
HeLa = assay: Cytostatic assay, HeLa cells; format: cell-based; conditions: for IC50: Table 6, read-out: IC50 HeLa; for CC50: Table 1, read-out: CC50 HeLa
Text: as §1

HeLa/TK^− = assay: Cytostatic assay, HeLa/TK^− cells; format: cell-based; conditions: for IC50: Table 6, read-out: IC50 HeLa/TK^−; for CC50: Table 1, read-out: CC50 HeLa/TK^−
Text: as §1

L1210.Hyor = assay: Cytostatic assay, Mycoplasma hyorhinis-infected L1210 cells; conditions: for % Retention: CC50 L1210 × 100 ÷ CC50 L1210/Hyor
Outline: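 Suspension L1210/0 murine leukaemia cells infected with M. hyorhinis, seeded at 60,000 cells/well with test compound in DMEM/10% FBS and grown 48 h at 37 °C, 5% CO2. Cell number counted by Coulter counter; activity also expressed as % retained versus uninfected cells.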

Cem/hEnt-1 = assay: Cytostatic assay, CEM cells containing the hEnt1 transporter; format: cell-based
Text: (§2) Data are mean (±SD) of at least two to four independent experiments. Table 8 identifies the phosphoramidate motif of compounds embodying the present invention, as discussed above with respect to Table 6, but with “Naph” standing for 1-naphthyl.

Cem/hEnt-0 = assay: Cytostatic assay, CEM cells lacking the hEnt1 transporter; format: cell-based; conditions: read-out: IC50 Cem/hEnt-0
Text: as §2

FM3A/0 = assay: Cytostatic assay, FM3A/0 cells; format: cell-based; conditions: Mus musculus
Description: The samples were assayed for biological activity versus a range of tumour cell lines with data recorded in Table 1 below. […] The cell lines employed were L1210/0 (a leukemia cell line), FM3A/0 (a breast cancer cell line), Cem/0 (an acute lymphoblastic leukemia cell line) and HeLa (a cervical cell line).

FM3A/TK^− = assay: Cytostatic assay, FM3A/TK^− cells; format: cell-based; conditions: Mus musculus, read-out: CC50 FM3A/TK^−
[1] = Mus musculus, L1210/0, Table 1, read-out: CC50 L1210/0
[2] = Mus musculus, L1210/0, Table 2, mycoplasma negative cells, read-out: CC50 L1210
[3] = Mus musculus, L1210, read-out: CC50 L1210/Hyor
[4] = Mus musculus, L1210, read-out: IC50 L1210.Hyor
[5] = Homo sapiens, CCRF-CEM, read-out: IC50 Cem/hEnt-1
[6] = read-out: IC50 Cem/hEnt-1 + NBMPR, in the presence of NBMPR
[7] = read-out: IC50 Cem/hEnt-1 + dipyridamole, in the presence of dipyridamole
[8] = read-out: IC50 L1210.Hyor, Table 7

Structure (SMILES)	CC50 (L1210/0; [1])	CC50 (L1210/0; [2])	IC50 (L1210/0; Mus musculus, L1210/0, Table 6)	IC50 (L1210/0; Mus musculus, L1210/0, Table 7)	CC50 (L1210/TK^−; Mus musculus)	IC50 (L1210/TK^−; Mus musculus, L1210)	CC50 (Cem/0; Homo sapiens, CCRF-CEM)	IC50 (Cem/0; Homo sapiens, CCRF-CEM)	CC50 (Cem/TK^−; Homo sapiens, CEM-TK(-))	IC50 (Cem/TK^−; Homo sapiens, CEM-TK(-))	IC50 (HeLa; Homo sapiens, HeLa)	IC50 (HeLa/TK^−; Homo sapiens, HeLa)	% Retention (L1210.Hyor)	CC50 (L1210.Hyor; [3])	IC50 (L1210.Hyor; [4])	IC50(L1210.Hyor)/IC50(L1210/0) (L1210.Hyor; Table 7)	CC50 (HeLa; Homo sapiens, HeLa)	other results
CCOC(=O)C(C)(C)NP(=O)(OC[C@H]1O[C@@H](n2cc(F)c(=O)[nH]c2=O)CC1O)Oc1ccccc1 (stereo partly drawn) [CPF 394, 5-Fluoro-2′deoxyuridine-5′-O-[phenyl (ethoxy-α,α-dimethylglycine)]phosphate]	39 ± 1 nM	30 nM	39 ± 1 nM	30 ± 0.5 nM	4600 nM	4600 nM	650 ± 160 nM	650 ± 160 nM	22000 ± 1000 nM	22000 ± 1000 nM	590 ± 90 nM	17000 ± 2000 nM	12%	260 nM	260 ± 10 nM	8.7	–	IC50 (Cem/hEnt-1; [5]): 370 ± 140 nM; IC50 (Cem/hEnt-1; [6]): 2560 nM; IC50 (Cem/hEnt-1; [7]): 2350 nM; IC50 (Cem/hEnt-0; Homo sapiens, CCRF-CEM): 5800 ± 500 nM
O=c1[nH]c(=O)n([C@H]2C[C@H](O)[C@@H](COP(=O)(O)O)O2)cc1F [5-FdUMP, 5-fluoro-2′-deoxyuridine-5′-monophosphate, reference compound]	–	–	–	–	–	–	–	–	–	–	–	–	–	–	–	–	–	IC50 (Cem/hEnt-1; Homo sapiens, CCRF-CEM, Table 8, read-out: IC50 Cem/hEnt-1): 50 ± 20 nM; IC50 (Cem/hEnt-1; Homo sapiens, CCRF-CEM, in the presence of NBMPR, read-out: IC50 Cem/hEnt-1 + NBMPR): 1060 nM; IC50 (Cem/hEnt-1; Homo sapiens, CCRF-CEM, in the presence of dipyridamole, read-out: IC50 Cem/hEnt-1 + dipyridamole): 1740 nM; IC50 (Cem/hEnt-0; Homo sapiens, CCRF-CEM, Table 8): 3600 ± 690 nM
CCOC(=O)C(C)(C)NP(=O)(OC[C@H]1O[C@@H](n2cc(F)c(=O)[nH]c2=O)CC1O)Oc1cccc2ccccc12 (stereo partly drawn) [CPF 396, 5-Fluoro-2′deoxyuridine-5′-O-[1-naphthyl (ethoxy-α,α-dimethylglycine)]phosphate]	64 ± 8 nM	56 nM	64 ± 8 nM	56 ± 40 nM	820 ± 160 nM	820 ± 160 nM	360 ± 50 nM	360 ± 50 nM	6900 ± 1800 nM	6900 ± 1800 nM	200 ± 120 nM	3200 nM	33%	170 nM	170 ± 30 nM	3	–	IC50 (Cem/hEnt-1; [5]): 210 ± 70 nM; IC50 (Cem/hEnt-1; [6]): 620 nM; IC50 (Cem/hEnt-1; [7]): 520 nM; IC50 (Cem/hEnt-0; Homo sapiens, CCRF-CEM): 1400 ± 200 nM
CC(C)(NP(=O)(OCC1OC(n2cc(F)c(=O)[nH]c2=O)CC1O)Oc1cccc2ccccc12)C(=O)OCc1ccccc1 (stereo not drawn) [CPF 395, 5-Fluoro-2′deoxyuridine-5′-O-[1-naphthyl (benzoxy-α,α-dimethylglycine)]phosphate]	–	–	–	–	–	–	–	–	–	–	–	–	42%	–	–	2.4	–	CC50 (L1210/0; Table 2, mycoplasma negative cells, read-out: CC50 L1210): 19 nM; IC50 (L1210/0; Table 6): 11 ± 5 nM; IC50 (L1210/0; Table 7): 19 ± 4 nM; IC50 (L1210/TK^−): 130 ± 40 nM; IC50 (Cem/0): 160 ± 20 nM; IC50 (Cem/TK^−): 2400 ± 800 nM; IC50 (HeLa): 78 ± 20 nM; IC50 (HeLa/TK^−): 3100 ± 600 nM; CC50 (L1210.Hyor; read-out: CC50 L1210/Hyor, Table 2, mycoplasma positive cells): 45 nM; IC50 (L1210.Hyor; [8]): 45 ± 4 nM; IC50 (Cem/hEnt-1; Table 8, read-out: IC50 Cem/hEnt-1): 50 ± 30 nM; IC50 (Cem/hEnt-1; in the presence of NBMPR, read-out: IC50 Cem/hEnt-1 + NBMPR): 280 nM; IC50 (Cem/hEnt-1; in the presence of dipyridamole, read-out: IC50 Cem/hEnt-1 + dipyridamole): 160 nM; IC50 (Cem/hEnt-0; Table 8): 400 ± 130 nM
O=c1[nH]cc(F)c(=O)[nH]1 [5-FU, 5-Fluorouracil, reference compound]	330 ± 170 nM	–	330 ± 170 nM	–	320 ± 310 nM	320 ± 310 nM	18000 ± 5000 nM	18000 ± 5000 nM	–	12000 ± 1000 nM	540 ± 120 nM	230 ± 10 nM	–	–	–	–	540 ± 120 nM	CC50 (FM3A/0; FM3A/0, Table 1, read-out: CC50 FM3A/0): 180 ± 20 nM
CCOC(=O)[C@H](C)NP(=O)(OC[C@H]1O[C@@H](n2cc(F)c(=O)[nH]c2=O)CC1O)Oc1ccccc1 (stereo partly drawn) [CPF 383]	130 ± 40 nM	–	130 ± 40 nM	110 ± 2.1 nM	940 ± 180 nM	940 ± 180 nM	920 ± 110 nM	920 ± 110 nM	14000 nM	14000 nM	480 ± 190 nM	9800 ± 1400 nM	–	–	540 ± 120 nM	5	480 ± 190 nM	CC50 (FM3A/0; FM3A/0, read-out: CC50 FM3A/0): 640 ± 570 nM; CC50 (FM3A/TK^−): 4100 ± 2000 nM; CC50 (HeLa/TK^−; Homo sapiens, HeLa): 9800 ± 1400 nM
C[C@H](NP(=O)(OC[C@H]1O[C@@H](n2cc(F)c(=O)[nH]c2=O)CC1O)Oc1cccc2ccccc12)C(=O)OC1CCCCC1 (stereo partly drawn) [CPF 509, 5-Fluoro-2′deoxyuridine-5′-O-[1-naphthyl (cyclohexoxy-L-alaninyl)]phosphate]	43 ± 23 nM	–	43 ± 23 nM	36 ± 17 nM	150 nM	150 nM	57 ± 55 nM	57 ± 55 nM	–	1000 ± 100 nM	90 ± 14 nM	–	–	–	49 ± 4 nM	1.4	90 ± 14 nM	CC50 (FM3A/0; FM3A/0, read-out: CC50 FM3A/0): 310 ± 60 nM
CC(C)(NP(=O)(OC[C@H]1O[C@@H](n2cc(F)c(=O)[nH]c2=O)CC1O)Oc1ccccc1)C(=O)OCc1ccccc1 (stereo partly drawn) [CPF 393, 5-Fluoro-2′deoxyuridine-5′-O-[phenyl (benzoxy-α,α-dimethylglycine)]phosphate]	17 ± 3 nM	29 nM	17 ± 3 nM	29 ± 1 nM	180 ± 50 nM	180 ± 50 nM	230 ± 40 nM	230 ± 40 nM	4800 ± 700 nM	4800 ± 700 nM	240 ± 70 nM	3700 ± 100 nM	145%	20 nM	20 ± 2 nM	0.69	–	IC50 (Cem/hEnt-1; [5]): 170 ± 60 nM; IC50 (Cem/hEnt-1; [6]): 610 nM; IC50 (Cem/hEnt-1; [7]): 260 nM; IC50 (Cem/hEnt-0; Homo sapiens, CCRF-CEM): 1200 ± 110 nM
CC(C)OC(=O)[C@H](C)NP(=O)(OC[C@H]1O[C@@H](n2cc(F)c(=O)[nH]c2=O)CC1O)Oc1ccccc1 (stereo partly drawn) [CPF 384, 5-Fluoro-2′deoxyuridine-5′-O-[phenyl(isopropoxy-L-alaninyl)] phosphate]	76 ± 22 nM	–	76 ± 22 nM	50 ± 13 nM	1100 ± 100 nM	1100 ± 100 nM	1000 ± 100 nM	1000 ± 100 nM	30000 ± 10000 nM	30000 ± 10000 nM	710 ± 150 nM	25000 ± 11000 nM	–	–	700 ± 100 nM	14	710 ± 150 nM	CC50 (FM3A/0; FM3A/0, read-out: CC50 FM3A/0): 360 ± 250 nM; CC50 (FM3A/TK^−): 13000 ± 1000 nM; CC50 (HeLa/TK^−; Homo sapiens, HeLa): 25000 ± 11000 nM
C[C@H](NP(=O)(OC[C@H]1O[C@@H](n2cc(F)c(=O)[nH]c2=O)C[C@@H]1O)Oc1ccccc1)C(=O)OC1CCCCC1 (stereo partly drawn) [CPF 508, 5-Fluoro-2′deoxyuridine-5′-O-[phenyl (cyclohexoxy-L-alaninyl)] phosphate]	–	–	–	–	–	–	–	–	–	–	–	–	–	–	–	1.25	–	IC50 (L1210/0; Table 6): 39 ± 1 nM; IC50 (L1210/0; Table 7): 32 ± 5 nM; IC50 (L1210/TK^−): 140 ± 20 nM; IC50 (Cem/0): 170 ± 70 nM; IC50 (Cem/TK^−): 1200 ± 10 nM; IC50 (HeLa): 180 ± 50 nM; IC50 (HeLa/TK^−): 5900 ± 400 nM; IC50 (L1210.Hyor; [8]): 40 ± 16 nM
C[C@H](NP(=O)(OC[C@H]1O[C@@H](n2cc(F)c(=O)[nH]c2=O)CC1O)Oc1cccc2ccccc12)C(=O)OC1CCC1 (stereo partly drawn) [CPF 578, 5-Fluoro-2′-deoxyuridine-5′-O-[1-naphthyl-(cyclobutoxy-L-alaninyl)]phosphate]	14 ± 3 nM	15 nM	14 ± 3 nM	11 ± 1.4 nM	88 ± 38 nM	88 ± 38 nM	73 ± 18 nM	73 ± 18 nM	1500 ± 300 nM	1500 ± 300 nM	69 ± 3 nM	1500 ± 600 nM	31%	48 nM	24 ± 0.14 nM	2.2	69 ± 3 nM	CC50 (HeLa/TK^−; Homo sapiens, HeLa): 1500 ± 600 nM
